The source made the active and inactive calls. The rule behind the calls is not given here.
biological target: T1, Mineralocorticoid receptor (Homo sapiens) (UniProt P08235); experiment: Antagonist activity at human mineralocorticoid receptor expressed in COS7 cells after 24 hrs by luciferase reporter gene assay; format: functional, cell-based; details: COS-7
T1 sequence (whole entry): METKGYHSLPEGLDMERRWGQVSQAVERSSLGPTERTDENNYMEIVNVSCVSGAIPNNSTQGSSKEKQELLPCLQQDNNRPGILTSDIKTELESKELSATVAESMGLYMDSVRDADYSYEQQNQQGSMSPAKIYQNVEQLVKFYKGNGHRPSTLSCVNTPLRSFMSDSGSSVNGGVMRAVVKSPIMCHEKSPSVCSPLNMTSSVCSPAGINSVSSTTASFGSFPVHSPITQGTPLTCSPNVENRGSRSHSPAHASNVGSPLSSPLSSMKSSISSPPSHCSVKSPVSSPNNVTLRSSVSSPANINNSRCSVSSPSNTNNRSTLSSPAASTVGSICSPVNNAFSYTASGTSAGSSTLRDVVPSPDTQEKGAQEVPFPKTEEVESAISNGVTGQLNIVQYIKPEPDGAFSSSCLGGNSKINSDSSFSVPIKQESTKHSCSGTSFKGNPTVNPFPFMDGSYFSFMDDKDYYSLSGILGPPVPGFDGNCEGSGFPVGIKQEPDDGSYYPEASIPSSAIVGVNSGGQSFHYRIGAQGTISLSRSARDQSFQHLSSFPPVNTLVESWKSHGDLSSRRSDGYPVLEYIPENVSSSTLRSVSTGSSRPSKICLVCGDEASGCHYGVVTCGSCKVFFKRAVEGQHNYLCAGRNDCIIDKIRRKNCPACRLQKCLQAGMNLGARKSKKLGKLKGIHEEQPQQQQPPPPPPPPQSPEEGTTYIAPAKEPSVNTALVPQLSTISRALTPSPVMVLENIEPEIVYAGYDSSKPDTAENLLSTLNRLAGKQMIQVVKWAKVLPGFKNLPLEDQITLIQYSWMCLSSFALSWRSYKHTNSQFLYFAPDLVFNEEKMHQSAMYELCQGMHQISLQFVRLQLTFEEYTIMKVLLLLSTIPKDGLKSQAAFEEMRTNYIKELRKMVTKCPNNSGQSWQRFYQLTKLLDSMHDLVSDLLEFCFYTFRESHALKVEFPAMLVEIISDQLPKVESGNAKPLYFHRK

SMILES | Kb [nM]
COC(=O)[C@@H]1CC2=CC(=O)CC[C@]2(C)C2C1C1CC[C@@]3(CCC(=O)O3)[C@@]1(C)[C@H]1O[C@@H]21 (stereo partly specified) [EPIERENONE] | 189
C[C@](c1ccc(F)cc1)(c1c[nH]c2c(NS(C)(=O)=O)cccc12)C1CC1 | 115
C[C@@](c1ccc(F)cc1)(c1c[nH]c2c(NS(C)(=O)=O)cccc12)C1CC1 | 38.2

test system: Rattus norvegicus; experiment: Reduction in aldosterone-induced hypertension in salt-loaded uni-nephrectomized Sprague-Dawley rat at 3 mg/kg, po qd after 14 days; format: functional, organism-based; parameters: dose 3 mg/kg; details: not given

SMILES | Activity
C[C@@](c1ccc(F)cc1F)(c1c[nH]c2c(NS(C)(=O)=O)cccc12)C1CC1 | Active
C[C@@](c1ccc(F)cc1)(c1c[nH]c2c(NS(C)(=O)=O)cccc12)C1CC1 | inactive

test system: Rattus norvegicus; experiment: Reduction in aldosterone-induced hypertension in salt-loaded uni-nephrectomized Sprague-Dawley rat at 30 mg/kg, po qd after 14 days; format: functional, organism-based; parameters: dose 30 mg/kg; details: not given

SMILES | Activity
COC(=O)[C@@H]1CC2=CC(=O)CC[C@]2(C)C2C1C1CC[C@@]3(CCC(=O)O3)[C@@]1(C)[C@H]1O[C@@H]21 (stereo partly specified) [EPIERENONE] | Active

biological target: T2, Mineralocorticoid receptor (Homo sapiens, UniProt P08235); experiment: Binding affinity to human mineralocorticoid receptor; details: not given
T2 sequence (P08235 whole entry): T1 sequence (whole entry)

SMILES | Ki [nM]
COC(=O)[C@@H]1CC2=CC(=O)CC[C@]2(C)C2C1C1CC[C@@]3(CCC(=O)O3)[C@@]1(C)[C@H]1O[C@@H]21 (stereo partly specified) [EPIERENONE] | 124
C[C@](c1ccc(F)cc1)(c1c[nH]c2c(NS(C)(=O)=O)cccc12)C1CC1 | 7.5
C[C@@](c1ccc(F)cc1)(c1c[nH]c2c(NS(C)(=O)=O)cccc12)C1CC1 | 1.56

biological target: T3, Glucocorticoid receptor (Homo sapiens, UniProt P04150); experiment: Binding affinity to human glucocorticoid receptor; details: not given
T3 sequence (P04150 whole entry): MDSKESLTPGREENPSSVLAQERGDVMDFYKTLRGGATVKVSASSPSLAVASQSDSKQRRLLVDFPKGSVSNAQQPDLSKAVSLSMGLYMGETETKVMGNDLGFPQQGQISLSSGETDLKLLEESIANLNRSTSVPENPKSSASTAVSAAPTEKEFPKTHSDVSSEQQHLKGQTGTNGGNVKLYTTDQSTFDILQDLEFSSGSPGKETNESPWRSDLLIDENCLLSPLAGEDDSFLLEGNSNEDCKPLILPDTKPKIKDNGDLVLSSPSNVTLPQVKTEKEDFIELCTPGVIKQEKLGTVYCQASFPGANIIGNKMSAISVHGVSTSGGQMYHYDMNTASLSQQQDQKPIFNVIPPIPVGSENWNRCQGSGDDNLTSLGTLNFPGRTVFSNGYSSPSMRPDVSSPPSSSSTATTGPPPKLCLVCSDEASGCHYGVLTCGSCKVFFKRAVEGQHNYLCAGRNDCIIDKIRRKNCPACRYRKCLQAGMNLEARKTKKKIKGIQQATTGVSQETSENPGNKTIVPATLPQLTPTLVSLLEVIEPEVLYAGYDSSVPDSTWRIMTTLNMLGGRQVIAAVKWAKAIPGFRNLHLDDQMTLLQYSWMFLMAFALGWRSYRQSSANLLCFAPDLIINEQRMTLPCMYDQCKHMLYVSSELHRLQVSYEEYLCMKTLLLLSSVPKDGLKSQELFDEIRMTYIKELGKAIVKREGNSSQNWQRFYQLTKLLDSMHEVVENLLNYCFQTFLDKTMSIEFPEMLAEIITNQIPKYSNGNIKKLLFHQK

SMILES | Ki [nM]
COC(=O)[C@@H]1CC2=CC(=O)CC[C@]2(C)C2C1C1CC[C@@]3(CCC(=O)O3)[C@@]1(C)[C@H]1O[C@@H]21 (stereo partly specified) [EPIERENONE] | 1760
C[C@](c1ccc(F)cc1)(c1c[nH]c2c(NS(C)(=O)=O)cccc12)C1CC1 | 387
CC(=O)S[C@@H]1CC2=CC(=O)CC[C@]2(C)[C@H]2CC[C@@]3(C)[C@@H](CC[C@@]34CCC(=O)O4)[C@H]12 [SPIRONOLACTONE] | 32.6
C[C@@](c1ccc(F)cc1)(c1c[nH]c2c(NS(C)(=O)=O)cccc12)C1CC1 | 167

biological target: T4, Androgen receptor (Homo sapiens, UniProt P10275); experiment: Binding affinity to human androgen receptor; details: not given
T4 sequence (P10275 whole entry): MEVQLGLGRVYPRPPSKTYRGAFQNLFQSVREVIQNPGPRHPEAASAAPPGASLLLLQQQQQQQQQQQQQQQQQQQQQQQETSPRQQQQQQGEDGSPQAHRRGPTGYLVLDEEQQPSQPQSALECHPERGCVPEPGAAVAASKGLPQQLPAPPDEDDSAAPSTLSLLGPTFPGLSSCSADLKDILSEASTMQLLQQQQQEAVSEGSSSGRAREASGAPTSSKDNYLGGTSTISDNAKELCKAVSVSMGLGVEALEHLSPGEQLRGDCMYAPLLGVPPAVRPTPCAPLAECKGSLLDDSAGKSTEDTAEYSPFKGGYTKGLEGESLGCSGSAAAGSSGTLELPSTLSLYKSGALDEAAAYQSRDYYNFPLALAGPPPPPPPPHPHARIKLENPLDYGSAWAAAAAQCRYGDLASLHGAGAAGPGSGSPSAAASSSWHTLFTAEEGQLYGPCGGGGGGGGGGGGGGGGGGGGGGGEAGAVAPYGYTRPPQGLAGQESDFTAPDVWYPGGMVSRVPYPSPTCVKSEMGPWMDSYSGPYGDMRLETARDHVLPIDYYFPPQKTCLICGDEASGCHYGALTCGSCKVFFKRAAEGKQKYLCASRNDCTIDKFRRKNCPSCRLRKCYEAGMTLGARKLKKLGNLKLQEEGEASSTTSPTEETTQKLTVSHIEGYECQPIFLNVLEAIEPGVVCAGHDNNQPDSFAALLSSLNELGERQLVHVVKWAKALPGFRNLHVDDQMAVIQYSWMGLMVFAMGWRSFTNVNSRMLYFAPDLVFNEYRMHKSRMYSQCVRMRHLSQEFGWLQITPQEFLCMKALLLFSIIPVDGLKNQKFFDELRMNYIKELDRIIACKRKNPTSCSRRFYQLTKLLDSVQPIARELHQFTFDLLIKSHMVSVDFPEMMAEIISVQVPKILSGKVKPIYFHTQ

SMILES | Ki [nM]
C[C@@](c1ccc(F)cc1F)(c1c[nH]c2c(NS(C)(=O)=O)cccc12)C1CC1 | 700
COC(=O)[C@@H]1CC2=CC(=O)CC[C@]2(C)C2C1C1CC[C@@]3(CCC(=O)O3)[C@@]1(C)[C@H]1O[C@@H]21 (stereo partly specified) [EPIERENONE] | 8890
C[C@](c1ccc(F)cc1)(c1c[nH]c2c(NS(C)(=O)=O)cccc12)C1CC1 | 590
C[C@@](c1ccc(F)cc1)(c1c[nH]c2c(NS(C)(=O)=O)cccc12)C1CC1 | 849

biological target: T5, Progesterone receptor (Homo sapiens, UniProt P06401); experiment: Binding affinity to human progesterone receptor; details: not given
T5 sequence (P06401 whole entry): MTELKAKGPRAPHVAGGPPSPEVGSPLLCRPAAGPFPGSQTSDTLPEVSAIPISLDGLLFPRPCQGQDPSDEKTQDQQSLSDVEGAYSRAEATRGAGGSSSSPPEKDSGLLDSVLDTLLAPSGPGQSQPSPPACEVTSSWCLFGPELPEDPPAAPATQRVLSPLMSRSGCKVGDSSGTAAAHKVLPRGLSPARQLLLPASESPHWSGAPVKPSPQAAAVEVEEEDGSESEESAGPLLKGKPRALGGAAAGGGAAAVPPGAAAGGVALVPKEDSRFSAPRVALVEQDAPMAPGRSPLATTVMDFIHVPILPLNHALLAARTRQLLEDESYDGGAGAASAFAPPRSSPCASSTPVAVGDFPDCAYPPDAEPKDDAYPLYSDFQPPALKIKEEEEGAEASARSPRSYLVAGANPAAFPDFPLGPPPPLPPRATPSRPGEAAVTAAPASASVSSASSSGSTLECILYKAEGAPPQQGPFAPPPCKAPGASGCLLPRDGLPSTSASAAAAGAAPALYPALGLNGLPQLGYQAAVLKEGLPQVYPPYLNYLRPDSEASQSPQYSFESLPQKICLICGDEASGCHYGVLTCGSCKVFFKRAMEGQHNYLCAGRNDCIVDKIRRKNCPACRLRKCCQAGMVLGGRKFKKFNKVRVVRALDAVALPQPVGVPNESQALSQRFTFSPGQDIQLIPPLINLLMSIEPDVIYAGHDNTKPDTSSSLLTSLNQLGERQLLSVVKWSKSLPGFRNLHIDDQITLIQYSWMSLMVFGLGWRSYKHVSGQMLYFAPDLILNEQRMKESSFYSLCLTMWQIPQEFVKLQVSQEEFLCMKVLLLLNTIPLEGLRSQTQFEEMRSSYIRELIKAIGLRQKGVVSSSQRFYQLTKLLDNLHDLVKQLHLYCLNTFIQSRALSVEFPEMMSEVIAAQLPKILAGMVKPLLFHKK

SMILES | Ki [nM]
C[C@@](c1ccc(F)cc1F)(c1c[nH]c2c(NS(C)(=O)=O)cccc12)C1CC1 | 163
COC(=O)[C@@H]1CC2=CC(=O)CC[C@]2(C)C2C1C1CC[C@@]3(CCC(=O)O3)[C@@]1(C)[C@H]1O[C@@H]21 (stereo partly specified) [EPIERENONE] | 29400
C[C@](c1ccc(F)cc1)(c1c[nH]c2c(NS(C)(=O)=O)cccc12)C1CC1 | 313
C[C@@](c1ccc(F)cc1)(c1c[nH]c2c(NS(C)(=O)=O)cccc12)C1CC1 | 137

biological target: T6, Estrogen receptor (Homo sapiens, UniProt P03372); experiment: Binding affinity to human estrogen receptor; details: not given
T6 sequence (P03372 whole entry): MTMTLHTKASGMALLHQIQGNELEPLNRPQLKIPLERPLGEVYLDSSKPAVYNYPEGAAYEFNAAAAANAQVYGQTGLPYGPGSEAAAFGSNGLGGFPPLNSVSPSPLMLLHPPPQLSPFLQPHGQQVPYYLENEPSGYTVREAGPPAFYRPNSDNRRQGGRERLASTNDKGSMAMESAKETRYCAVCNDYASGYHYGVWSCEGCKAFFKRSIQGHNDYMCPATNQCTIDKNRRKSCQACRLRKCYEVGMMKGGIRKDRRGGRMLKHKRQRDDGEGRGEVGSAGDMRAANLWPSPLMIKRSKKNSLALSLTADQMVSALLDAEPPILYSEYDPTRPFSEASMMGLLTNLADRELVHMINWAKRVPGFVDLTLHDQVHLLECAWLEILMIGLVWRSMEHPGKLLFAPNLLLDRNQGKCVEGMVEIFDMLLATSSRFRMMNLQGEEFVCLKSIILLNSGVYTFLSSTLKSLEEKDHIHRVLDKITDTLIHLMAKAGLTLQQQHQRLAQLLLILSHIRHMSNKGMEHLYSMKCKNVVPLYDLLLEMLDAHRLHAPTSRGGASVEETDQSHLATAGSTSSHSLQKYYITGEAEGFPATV

SMILES | Ki [nM]
C[C@@](c1ccc(F)cc1F)(c1c[nH]c2c(NS(C)(=O)=O)cccc12)C1CC1 | > 1100
COC(=O)[C@@H]1CC2=CC(=O)CC[C@]2(C)C2C1C1CC[C@@]3(CCC(=O)O3)[C@@]1(C)[C@H]1O[C@@H]21 (stereo partly specified) [EPIERENONE] | > 1100
C[C@](c1ccc(F)cc1)(c1c[nH]c2c(NS(C)(=O)=O)cccc12)C1CC1 | > 1100
CC(=O)S[C@@H]1CC2=CC(=O)CC[C@]2(C)[C@H]2CC[C@@]3(C)[C@@H](CC[C@@]34CCC(=O)O4)[C@H]12 [SPIRONOLACTONE] | > 1100
C[C@@](c1ccc(F)cc1)(c1c[nH]c2c(NS(C)(=O)=O)cccc12)C1CC1 | > 1100
